Data taken from PMC10175918 (Communications Biology, 2023).
Read-outs that look alike come from different tables or passages of the source.

Tests used:
Assay in all cases: TGFα-shedding assay-based GPCR screening with chimeric Gα subunit proteins
Type in all cases: cell-based
348 GPCRs [1] = biological target: T1, 348 GPCRs (Homo sapiens, UniProt O15354); settings: 10µM, Favipiravir 100μM
T1 construct: expressed in transfected cells; host or cells: HEK293A
T1 sequence (O15354 27-613): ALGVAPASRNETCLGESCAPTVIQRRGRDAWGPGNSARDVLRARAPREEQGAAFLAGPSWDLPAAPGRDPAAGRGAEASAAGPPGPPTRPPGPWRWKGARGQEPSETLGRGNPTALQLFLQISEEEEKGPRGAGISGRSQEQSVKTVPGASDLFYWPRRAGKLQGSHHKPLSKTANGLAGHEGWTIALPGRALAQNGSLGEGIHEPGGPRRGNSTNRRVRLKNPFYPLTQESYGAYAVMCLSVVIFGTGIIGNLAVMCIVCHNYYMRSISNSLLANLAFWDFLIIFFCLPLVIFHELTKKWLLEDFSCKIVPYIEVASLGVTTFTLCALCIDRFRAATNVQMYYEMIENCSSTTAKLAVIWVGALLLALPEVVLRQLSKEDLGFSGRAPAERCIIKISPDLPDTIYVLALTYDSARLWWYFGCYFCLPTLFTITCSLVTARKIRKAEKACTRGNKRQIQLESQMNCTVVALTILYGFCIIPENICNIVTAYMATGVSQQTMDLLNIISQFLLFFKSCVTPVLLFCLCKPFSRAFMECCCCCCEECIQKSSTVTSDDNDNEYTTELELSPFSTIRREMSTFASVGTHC

348 GPCRs [2] = biological target: T2, 348 GPCRs (Homo sapiens, UniProt P28222); settings: 10µM, Favipiravir 100μM
T2 construct: expressed in transfected cells; host or cells: HEK293A
T2 sequence (P28222 whole entry): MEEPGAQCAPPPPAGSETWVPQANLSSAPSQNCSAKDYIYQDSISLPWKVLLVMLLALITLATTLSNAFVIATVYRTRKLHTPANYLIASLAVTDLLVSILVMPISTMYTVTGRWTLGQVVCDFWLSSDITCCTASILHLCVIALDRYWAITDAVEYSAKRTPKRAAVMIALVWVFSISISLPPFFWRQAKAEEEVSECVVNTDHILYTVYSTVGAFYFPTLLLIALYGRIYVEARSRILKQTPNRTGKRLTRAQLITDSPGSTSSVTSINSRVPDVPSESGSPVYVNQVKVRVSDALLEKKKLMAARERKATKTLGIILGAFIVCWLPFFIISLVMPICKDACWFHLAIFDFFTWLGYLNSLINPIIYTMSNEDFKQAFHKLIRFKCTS

348 GPCRs [3] = biological target: T3, 348 GPCRs (Homo sapiens, UniProt P32248); settings: CCR7 (C-C motif chemokine receptor 7); 10µM, Favipiravir 100μM
T3 construct: expressed in transfected cells; host or cells: HEK293A
T3 sequence (P32248 25-378): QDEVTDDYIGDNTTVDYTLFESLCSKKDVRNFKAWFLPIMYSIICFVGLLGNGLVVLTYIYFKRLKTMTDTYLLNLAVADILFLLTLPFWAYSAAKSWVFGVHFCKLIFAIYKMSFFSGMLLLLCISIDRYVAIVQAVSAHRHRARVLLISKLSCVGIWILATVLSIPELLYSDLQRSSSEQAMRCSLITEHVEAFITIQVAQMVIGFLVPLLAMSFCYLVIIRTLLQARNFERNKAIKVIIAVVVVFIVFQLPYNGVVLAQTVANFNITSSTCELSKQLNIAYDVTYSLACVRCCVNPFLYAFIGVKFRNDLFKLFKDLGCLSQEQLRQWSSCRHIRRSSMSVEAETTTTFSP

348 GPCRs [4] = biological target: T4, 348 GPCRs (Homo sapiens, UniProt P41968)
T4 construct: expressed in transfected cells; host or cells: HEK293A
T4 sequence (P41968 whole entry): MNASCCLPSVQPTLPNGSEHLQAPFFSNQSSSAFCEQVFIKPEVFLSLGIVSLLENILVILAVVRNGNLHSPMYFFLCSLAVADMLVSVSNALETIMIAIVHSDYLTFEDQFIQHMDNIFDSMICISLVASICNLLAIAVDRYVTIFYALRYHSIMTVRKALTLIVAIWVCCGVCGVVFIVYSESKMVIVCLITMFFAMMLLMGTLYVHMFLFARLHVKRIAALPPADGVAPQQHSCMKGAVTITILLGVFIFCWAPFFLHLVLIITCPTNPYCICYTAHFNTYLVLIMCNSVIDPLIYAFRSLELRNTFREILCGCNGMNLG

348 GPCRs [5] = biological target: T5, 348 GPCRs (Homo sapiens, UniProt Q5T6X5); settings: 10µM, Favipiravir 100μM
T5 construct: expressed in transfected cells; host or cells: HEK293A
T5 sequence (Q5T6X5 19-926): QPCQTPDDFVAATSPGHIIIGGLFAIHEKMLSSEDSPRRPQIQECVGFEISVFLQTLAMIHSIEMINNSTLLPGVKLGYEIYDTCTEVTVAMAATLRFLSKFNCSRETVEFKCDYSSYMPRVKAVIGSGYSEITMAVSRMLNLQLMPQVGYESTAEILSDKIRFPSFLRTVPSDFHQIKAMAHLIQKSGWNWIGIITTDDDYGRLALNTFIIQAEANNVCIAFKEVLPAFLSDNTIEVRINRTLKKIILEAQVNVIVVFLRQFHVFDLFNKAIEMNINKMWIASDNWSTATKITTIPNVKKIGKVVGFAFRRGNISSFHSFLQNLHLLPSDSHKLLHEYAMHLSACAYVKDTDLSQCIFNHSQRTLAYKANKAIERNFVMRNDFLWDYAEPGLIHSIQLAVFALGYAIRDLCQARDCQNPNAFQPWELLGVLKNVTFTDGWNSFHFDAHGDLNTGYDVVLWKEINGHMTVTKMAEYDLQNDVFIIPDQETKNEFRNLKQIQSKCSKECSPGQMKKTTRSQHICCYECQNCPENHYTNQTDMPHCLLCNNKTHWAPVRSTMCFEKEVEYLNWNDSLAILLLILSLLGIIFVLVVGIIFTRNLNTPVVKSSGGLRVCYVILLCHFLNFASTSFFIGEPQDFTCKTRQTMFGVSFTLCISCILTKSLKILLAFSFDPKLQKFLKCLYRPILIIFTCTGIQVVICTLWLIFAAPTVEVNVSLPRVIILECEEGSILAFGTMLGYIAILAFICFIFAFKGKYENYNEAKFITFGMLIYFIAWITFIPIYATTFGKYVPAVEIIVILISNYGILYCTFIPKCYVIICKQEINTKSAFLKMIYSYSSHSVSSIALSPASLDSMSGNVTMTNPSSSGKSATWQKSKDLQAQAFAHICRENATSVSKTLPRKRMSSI

348 GPCRs [6] = biological target: T6, 348 GPCRs (Homo sapiens, UniProt Q8TDV5)
T6 construct: expressed in transfected cells; host or cells: HEK293A
T6 sequence (Q8TDV5 1-335): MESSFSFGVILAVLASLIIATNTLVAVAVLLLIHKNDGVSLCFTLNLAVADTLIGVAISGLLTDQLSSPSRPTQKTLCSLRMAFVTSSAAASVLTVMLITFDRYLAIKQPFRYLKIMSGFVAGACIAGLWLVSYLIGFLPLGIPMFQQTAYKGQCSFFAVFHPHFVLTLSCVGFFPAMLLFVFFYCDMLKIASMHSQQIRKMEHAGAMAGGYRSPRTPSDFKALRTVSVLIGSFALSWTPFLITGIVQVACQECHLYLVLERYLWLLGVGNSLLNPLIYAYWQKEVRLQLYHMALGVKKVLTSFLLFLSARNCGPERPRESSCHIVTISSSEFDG

348 GPCRs [7] = biological target: T7, 348 GPCRs (Homo sapiens, UniProt Q96P68)
T7 construct: expressed in transfected cells; host or cells: HEK293A

348 GPCRs [8] = biological target: T8, 348 GPCRs (Homo sapiens, UniProt Q9P296); settings: 10µM, Favipiravir 100μM
T8 construct: expressed in transfected cells; host or cells: HEK293A
T8 sequence (Q9P296 whole entry): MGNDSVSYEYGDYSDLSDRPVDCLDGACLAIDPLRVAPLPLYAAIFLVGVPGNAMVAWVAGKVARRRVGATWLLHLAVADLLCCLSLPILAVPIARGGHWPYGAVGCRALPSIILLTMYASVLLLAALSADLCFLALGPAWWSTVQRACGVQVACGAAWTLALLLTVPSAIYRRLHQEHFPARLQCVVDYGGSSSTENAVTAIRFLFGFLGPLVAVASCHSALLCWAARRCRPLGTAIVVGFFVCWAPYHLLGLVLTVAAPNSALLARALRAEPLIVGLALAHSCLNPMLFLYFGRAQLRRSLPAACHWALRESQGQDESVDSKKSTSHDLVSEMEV

[9] = GPR37 (G protein-coupled receptor 37), read-out: % GPCR activation compared to TPA
[10] = 5-HT1B (5-hydroxytryptamine receptor 1B), read-out: % GPCR activation compared to TPA
[11] = GPCR MC3R (melanocortin 3 receptor), read-out: % GPCR activation compared to TPA
[12] = GPRC6A (G protein-coupled receptor, family C, group 6, member A), read-out: % GPCR activation compared to TPA
[13] = GPCR GPR119 (G protein-coupled receptor 119), read-out: % GPCR activation compared to TPA
[14] = GPCR OXGR1 (oxoglutarate (alpha-ketoglutarate) receptor 1), read-out: % GPCR activation compared to TPA
[15] = GPR77 (complement component 5a receptor 2 (C5AR2)), read-out: % GPCR activation compared to TPA
[16] = read-out: % GPCR activation compared to TPA, GPR37 (G protein-coupled receptor 37)
[17] = read-out: % GPCR activation compared to TPA, 5-HT1B (5-hydroxytryptamine receptor 1B)
[18] = read-out: % GPCR activation compared to TPA, GPCR MC3R (melanocortin 3 receptor)
[19] = read-out: % GPCR activation compared to TPA, GPRC6A (G protein-coupled receptor, family C, group 6, member A)
[20] = read-out: % GPCR activation compared to TPA, GPCR GPR119 (G protein-coupled receptor 119)
[21] = read-out: % GPCR activation compared to TPA, GPCR OXGR1 (oxoglutarate (alpha-ketoglutarate) receptor 1)
[22] = read-out: % GPCR activation compared to TPA, GPR77 (complement component 5a receptor 2 (C5AR2))

Structure (SMILES): N#C[C@@]1(c2ccc3c(N)ncnn23)O[C@H](CO)[C@@H](O)[C@H]1O [GS441524]
- activation at 10 µM (348 GPCRs [1]; [9]): -2.53%
- activation at 100 µM (348 GPCRs [2]; [10]): -3.77%
- % GPCR activation compared to TPA (348 GPCRs [3]): -0.998%
- activation at 10 µM (348 GPCRs [4]; [11]): 2.26%
- activation at 10 µM (348 GPCRs [5]; [12]): -1.11%
- activation at 10 µM (348 GPCRs [6]; [13]): 5.33%
- activation at 10 µM (348 GPCRs [7]; [14]): -0.462%
- activation at 100 µM (348 GPCRs [8]; [15]): 2.65%

Structure (SMILES): CC(C)OC(=O)[C@H](C)N[P@](=O)(OC[C@H]1O[C@@H](n2ccc(=O)[nH]c2=O)[C@](C)(F)[C@@H]1O)Oc1ccccc1 [sofosbuvir]
- activation at 10 µM (348 GPCRs [1]; [16]): -2.61%
- activation at 100 µM (348 GPCRs [2]; [17]): -1%
- % GPCR activation compared to TPA (348 GPCRs [3]): -0.9167%
- activation at 10 µM (348 GPCRs [4]; [18]): -3.13%
- activation at 10 µM (348 GPCRs [5]; [19]): 0.803%
- activation at 10 µM (348 GPCRs [6]; [20]): -6.04%
- activation at 10 µM (348 GPCRs [7]; [21]): 1.77%
- activation at 100 µM (348 GPCRs [8]; [22]): -3.7%

Structure (SMILES): CCC(CC)COC(=O)[C@H](C)N[P@](=O)(OC[C@H]1O[C@@](C#N)(c2ccc3c(N)ncnn23)[C@H](O)[C@@H]1O)Oc1ccccc1 [remdesivir]
- activation at 10 µM (348 GPCRs [1]; [16]): -0.881%
- activation at 100 µM (348 GPCRs [2]; [17]): -0.255%
- activation at 10 µM (348 GPCRs [4]; [18]): 1.7%
- activation at 10 µM (348 GPCRs [5]; [19]): -2.47%
- activation at 10 µM (348 GPCRs [6]; [20]): 7.14%
- activation at 10 µM (348 GPCRs [7]; [21]): 0.444%
- activation at 100 µM (348 GPCRs [8]; [22]): 4.77%

Structure (SMILES): CC(C)C(=O)OC[C@H]1O[C@@H](n2ccc(NO)nc2=O)[C@H](O)[C@@H]1O [molnupiravir]
- activation at 10 µM (348 GPCRs [1]; [9]): -2.05%
- activation at 100 µM (348 GPCRs [2]; [10]): -0.835%
- % GPCR activation compared to TPA (348 GPCRs [3]): 0.5462%
- activation at 10 µM (348 GPCRs [4]; [11]): -4.7%
- activation at 10 µM (348 GPCRs [5]; [12]): -1.51%
- activation at 10 µM (348 GPCRs [6]; [13]): -26.9%
- activation at 10 µM (348 GPCRs [7]; [14]): 0.239%
- activation at 100 µM (348 GPCRs [8]; [15]): -1.07%

Structure (SMILES): NC(=O)c1nc(F)cnc1O [favipiravir, 6-fluoro-3-hydroxy-2-pyrazinecarboxamide]
- activation at 10 µM (348 GPCRs [1]; [9]): -0.655%
- activation at 100 µM (348 GPCRs [2]; [10]): -3.2%
- % GPCR activation compared to TPA (348 GPCRs [3]): -0.3349%
- activation at 100 µM (348 GPCRs [4]; GPCR MC3R (melanocortin 3 receptor), 100μM, read-out: % GPCR activation compared to TPA): 0.3%
- activation at 10 µM (348 GPCRs [5]; [12]): -1.55%
- activation at 100 µM (348 GPCRs [6]; GPCR GPR119 (G protein-coupled receptor 119), 100μM, read-out: % GPCR activation compared to TPA): 3.67%
- activation at 100 µM (348 GPCRs [7]; GPCR OXGR1 (oxoglutarate (alpha-ketoglutarate) receptor 1), 100μM, read-out: % GPCR activation compared to TPA): -1.07%
- activation at 100 µM (348 GPCRs [8]; [15]): 6.15%
